This assay has as its target T1, MLK-7 (Homo sapiens, UniProt Q9NYL2).
T1 construct: GST; His tag; made in house; host or cells: Sf9 insect cells (baculovirus, pVL1392)
Description: In vitro assay of purified MLK-7 kinase activity (33P transfer from ATP to myelin basic protein). Type of assay: biochemical. The following applies: recombinant GST-tagged MLK-7 at 1 nm, 30 uM ATP, 5 uM MBP substrate, 2 hours room temperature; read-out: MLK7 IC50. The text has this: In Vitro Assay of Purified Mixed Lineage Kinase 7 (MLK-7) Activity:
Briefly, recombinant glutathione-s-transferase (GST) tagged MLK-7 is expressed in Sf9 cells using a recombinant baculovirus created using baculovirus transfer vector pVL1392 modified to contain a GST and histidine tag. The recombinant protein is purified over a glutathione column and subsequently used for in vitro kinase assays with myelin basic protein (MBP) as the substrate for phosphorylation. The in vitro kinase reaction is run with recombinant MLK-7 at 1 nm and various concentrations of test compound in a reaction mixture containing 2 mM DTT, 30 uM ATP, 5 mM MgCl2, 5 uM MBP, 4% DMSO, 5 uCi 33P in 44 mM HEPES, (pH 7.4). The reaction is carried out for 2 hours at room temperature and then stopped by the addition of phosphoric acid to 5.5%. The phosphorylated MBP is collected on a filter and radioactivity associated with the membrane measured using a scintillation counter. Inhibitors are identified by the ability to reduce the transfer of radioactive phosphate from ATP to MBP compared to controls run without test compound.
IC50 values, defined as the concentration of test compound required to decrease the transfer of radioactive phosphate from ATP to MBP by 50%, are then determined. Ki values (which refers to the dissociation constant of an enzyme-antagonist complex and serves as an index of ligand binding) for each respective test compound can also be calculated by application of the Cheng-Prusoff equation as described in Cheng et al., Relationship Between The Inhibition Constant (Ki) and The Concentration of Inhibitor Which Causes 50% Inhibition (IC50) of an Enzymatic Reaction, Biochem. Pharmacol., 22: […]; (1973).
Representative compounds of the present invention have an IC50 in the MLK-7 kinase assay of ≦10,000 nM Table I (see infra.) provides IC50 data from the afore mentioned MLK-7 kinase assay for a representative sample of the exemplified compounds of the present invention.
For `c1ccc(-c2nn3c(c2-c2ccnc4cc(-c5ccc(OCCN6CCCCC6)cc5)ccc24)CCC3)nc1` [Example 110, 7-[4-(2-Piperidin-1-yl-ethoxy)phenyl]-4-(2-Pyridin-2-yl-5,6-dihydro-4H-pyrrolo[1,2-b]pyrazol-3-yl)quinoline Ditrifluoroacetic Acid], the IC50 (commonly the concentration that gives 50% inhibition) is at most 100 nM.

`c1ccc(-c2nn3c(c2-c2ccnc4cc(-c5cc[nH]c5)ccc24)CCC3)nc1` [Example 71, 4-(2-pyridin-2-yl-5,6-dihydro-4H-pyrrolo[1,2-b]pyrazol-3-yl)-7-(1H-pyrrol-3-yl)quinoline Ditrifluoroacetic Acid]: the IC50 is at most 100 nM.

In the case of `c1ccc(-c2nn3c(c2-c2ccnc4cc(-n5ccnn5)ccc24)CCC3)nc1` [Example 101, 4-(2-pyridin-2-yl-5,6-dihydro-4H-pyrrolo[1,2-b]pyrazol-3-yl-)-7-[1,2,3]triazol-1-yl-quinoline ditrifluoroacetic Acid], the IC50 is at most 1000 nM.

Regarding `O=C(O)C(F)F.c1ccc(-c2nn3c(c2-c2ccnc4cc(-c5nc6ccccc6[nH]5)ccc24)CCC3)nc1` [Example 87, 7-(1H-Benzoimdazol-2-yl)-4-(2-pyridin-2-yl-5,6-dihydro-4H-pyrrolo[1,2-b]pyrazol-3-yl)quinoline Difluoroacetic Acid], the IC50 is at most 100 nM.

As to `c1ccc(-c2nn3c(c2-c2ccnc4cc(-c5ccc(OCCN6CCCC6)cc5)ccc24)CCC3)nc1` [Example 111, 4-(2-Pyridin-2-yl-5,6-dihydro-4H-pyrrolo[1,2-b]pyrazol-3-yl)-7-[4-(2-pyrrolidin-1-yl-ethoxy)phenyl] quinoline Ditrifluoroacetic Acid], the IC50 is at most 100 nM.

Turning to `Cc1cccc(-c2nn3c(c2-c2ccnc4cc(-c5ccc(CCC(=O)O)cc5)ccc24)CCC3)n1` [Example 58, 3-(4-{4-[2-(6-Methyl-pyridin-2-yl)-5,6-dihydro-4H-pyrrolo[1,2-b]pyrazol-3-yl]-quinolin-7-yl}-phenyl)-propionic acid], the IC50 was at most 100 nM.

Regarding “7-(4-Benzo[b]thiophen-3-yl-phenyl)-4-(2-pyridin-2-yl-5,6-dihydro-4H-pyrrolo[1,2-b]pyrazol-3-yl)-quinoline Trifluoroacetic Acid [Example 54]”, the half-inhibitory concentration (IC50) was at most 1000 nM.

On to `c1ccc(-c2nn3c(c2-c2ccnc4cc(-c5ccc(OCCCN6CCCCC6)cc5)ccc24)CCC3)nc1` [Example 112, 7-[4-(3-Piperdin-1-yl-propoxy)phenyl]-4-(2-Pyridin-2-yl-5,6-dihydro-4H-pyrrolo[1,2-b]pyrazol-3-yl)quinoline Ditrifluoroacetic Acid], for which the half-maximal inhibitory concentration (IC50) was at most 100 nM.

In the case of `CCOc1ccc(-c2ccc3c(-c4c(-c5ccccn5)nn5c4CCC5)ccnc3c2)cc1` [Example 19, 7-(4-Ethoxyphenyl)-4-(2-pyridin-2-yl-5,6-dihydro-4H-pyrrolo[1,2-b]pyrazol-3-yl)quinoline Trifluoroacetic Acid], the IC50 was at most 100 nM.

On to `NC(=O)c1ccc(-c2ccc3c(-c4c(-c5ccccn5)nn5c4CCC5)ccnc3c2)cc1` [Example 141, 4-[4-(2-Pyridin-2-yl-5,6-dihydro-4H-pyrrolo[1,2-b]pyrazol-3-yl)-quinolin-7-yl]-benzamide], for which the half-inhibitory concentration (IC50) is at most 100 nM.

For the compound `c1ccc(-c2nn3c(c2-c2ccnc4cc(-c5ccc6[nH]ccc6c5)ccc24)CCC3)nc1` [Example 27, 7-(1H-Indol-5-yl)-4-(2-pyridin-2-yl-5,6-dihydro-4H-pyrrolo[1,2-b]pyrazol-3-yl)quinoline Ditrifluoroacetic Acid], the IC50 was at most 100 nM.

For the compound `c1ccc(-c2nn3c(c2-c2ccnc4cc(-c5cc6ccccc6[nH]5)ccc24)CCC3)nc1` [Example 70, 7-(1H-Indol-2-yl)-4-(2-pyridin-2-yl-5,6-dihydro-4H-pyrrolo[1,2-b]pyrazol-3-yl)quinoline Ditrifluoroacetic Acid], the IC50 was at most 100 nM.

As for `O=[N+]([O-])c1ccc(-c2ccc3c(-c4c(-c5ccccn5)nn5c4CCC5)ccnc3c2)cc1` [Example 14, 7-(4-Nitrophenyl)-4-(2-pyridin-2-yl-5,6-dihydro-4H-pyrrolo[1,2-b]pyrazol-3-yl)quinoline Trifluoroacetic Acid], the IC50 is at most 100 nM.

(Values after patent publication US7511065B2, “Mixed lineage kinase modulators” (Eli Lilly and Company, priority 2002, dated 2009).)
